From paper PMC13672995, “NCR13 peptide protects soybean against Cercospora sojina using multi-faceted modes of action and additive interaction with chemical fungicides” (Journal of Experimental Botany, 2025)
Where no end group is shown, it is not given here.

Tests used:
[1] = tested on: C. sojina QoI fungicide-sensitive isolate Cs320; test: microbe, parasite or virus in culture; format: cell-based, Cercospora sojina
Experimental: (§1) In vitro antifungal activity of AFPs and QoI fungicides was determined using 96-well plate assays as described ([Velivelli et al., 2020]) with slight modifications. Briefly, 2- to 3-week-old C. sojina was used to make a conidial suspension in 2× SFM at the final concentration of ∼10^5 conidia ml^−1. Simultaneously, peptide dilutions (in water) at various concentrations were made. Fungicides were dissolved in 50% acetone and 50% water to make a stock solution of 500 µM, and serial dilutions were made in water as needed. The peptide–conidia or the fungicide–conidia mixture at the ratio of 1:1 (45 µl:45 µl) was added in a 96-well plate and incubated at room temperature for 48 h, after which MICs of the peptides/fungicides were calculated based on microscopy as well as the resazurin cell viability assay ([Velivelli et al., 2020]).

[2] = tested on: C. sojina Cs320 (fungicide sensitive); test: Peptide-fungicide checkerboard assay; format: cell-based, Cercospora sojina; details: Cs320, in vitro, 96 h
Experimental: (§2) Synergy between NCR13_PFV1 and the widely used QoI foliar fungicides, azoxystrobin (Sigma-Aldrich, Cat No: 31697), trifloxystrobin (Sigma-Aldrich, Cat No: 46447), and pyraclostrobin (Sigma-Aldrich, Cat No: 33696), were evaluated using checkerboard assays. This assay was performed in a 96-well plate and the preparation of conidial suspension, peptide dilutions, and fungicide dilutions were similar to the in vitro antifungal activity assay described above. The presence of an alternative respiration pathway allows some fungi including C. sojina to germinate even in the presence of a high dose of QoI fungicides in vitro ([Ziogas et al., 1997]; [Zhang et al., 2012]). Therefore, to prevent alternative respiration in C. sojina, salicylhydroxamic acid (SHAM) was added in each reaction at the final concentration of 60 µg ml^–1 ([Zhang et al., 2012]). The conidia, peptide, fungicide, and SHAM were added in a 96-well plate at the v/v ratio of 4:1:1:2 (50 µl:12.5 µl:12.5 µl:25 µl) in the final reaction volume of 100 µl, and the plate was incubated at room temperature for 96 h (4 d). After 96 h, MIC values of the peptide–fungicide combination, peptide alone, and fungicide alone were calculated based on microscopy as well as the resazurin cell viability assay. The fractional inhibitory concentration (FIC) index was calculated using the formula FIC = (MICA+B/MICA) + (MICB+A/MICB), where MICA and MICB are the MIC for peptide (A) alone and fungicide (B) alone, respectively, MICA+B is the MIC for peptide in combination with fungicide (A+B), and MICB+A is the MIC for fungicide in combination with peptide (B+A). The FIC index was interpreted as: synergistic, ≤0.5; additive, >0.5–1.0; indifferent, >1 to <4.0; or antagonistic, ≥4.0.

[3] = tested on: C. sojina Cs350 (fungicide resistant); test: Peptide-fungicide checkerboard assay; format: cell-based, Cercospora sojina
Experimental: as §2

[4] = tested on: azoxystrobin-resistant C. sojina Cs350 conidia; test: Cell death detection assay (propidium iodide, confocal microscopy); format: cell-based, Cercospora sojina; details: azoxystrobin 48 μM alone; within 1 h; PI staining; n=3
Experimental: The fungicidal activity of azoxystrobin and peptide NCR13_PFV1 in azoxystrobin-resistant C. sojina Cs350 was analyzed by visualizing the influx of a cell death indicator dye propidium iodide (PI) using time-lapse confocal microscopy. The C. sojina conidia were treated with various concentrations of azoxystrobin, NCR13_PFV1, azoxystrobin plus NCR13_PFV1, or water and 0.5 μg ml^–1 PI, and were observed under confocal microscopy at an excitation and emission wavelength of 500 nm and 545–690 nm, respectively. Z-stacks at each time point were acquired using a ×63 water immersion objective lens (HC PL Apochromat CS2). For each sample, the number of live and dead cells after 1 h of peptide, fungicide, or combination treatment was determined.

[5] = tested on: C. sojina Cs350 conidia and germlings; test: Plasma membrane permeabilization assay (SYTOX Green); format: cell-based, Cercospora sojina; details: Cs350; 0.5 µM SG; confocal microscopy
Experimental: Membrane permeabilization of C. sojina Cs350 by NCR13_PFV1 and azoxystrobin was analyzed by visualizing the influx of SYTOX Green (SG) (Thermo Scientific) using time-lapse confocal microscopy. Germlings grown for 6–8 h or conidia of C. sojina were mixed with various concentrations of NCR13_PFV1, azoxystrobin, or both and 0.5 µM SG and were observed under confocal microscopy at an excitation wavelength of 500 nm and an emission wavelength ranging from 510 nm to 600 nm at specific time intervals. A z-stack at each time point was acquired using a ×63 water immersion objective lens (HC PL Apochromat CS2).

[6] = tested on: C. sojina Cs350 on soybean cv. Blackhawk (FLS); test: In planta post-inoculation assay of NCR13_PFV1 and azoxystrobin combinations; format: in vivo, Cercospora sojina; details: azoxystrobin alone sprayed at 3 µM and 6 µM
Experimental: To further test additive/synergistic interaction between NCR13_PFV1 and azoxystrobin against the fungicide-resistant isolate Cs350, in planta assays were performed. These assays were similar to the post-inoculation in planta assays as mentioned above. Briefly, second or third trifoliate leaves of soybean were first sprayed with 1 ml of Cs350 conidial suspension (1×10^5 ml^−1) followed by spray application with 1 ml of NCR13_PFV1 (24 µM) or azoxystrobin (3 µM or 6 µM) or their combination (24 µM NCR13_PFV1 plus 3 µM azoxystrobin or 24 µM NCR13_PFV1 plus 6 µM azoxystrobin) or water after 2 h of pathogen inoculation. Plants were incubated in the growth chamber, and disease scoring was done as described above.

[7] = tested on: C. sojina QoI fungicide-resistant isolate Cs350; format: cell-based, Cercospora sojina
Experimental: as §1

[8] = tested on: fungicide-sensitive and -resistant isolates of C. sojina; test: In vitro antifungal activity assay (MIC stated across isolates); format: cell-based, Cercospora sojina
Experimental: as §1

[9] = Heme-peptide binding assay (colour change); details: equimolar heme and peptide, 100 µM, 1 h, room temperature
Experimental: Heme solutions were freshly prepared by dissolving hemin chloride (Sigma Cat No: 3741) in 0.1 M NaOH and used within an hour after preparation. Two heme-sequestering peptides, NCR247 and NCR455 ([Montiel et al., 2017]; [Sankari et al., 2022]), were used as positive controls, and water-only treatment as a negative control. The equimolar concentration of heme and peptide (100 µM) or water were mixed and incubated at room temperature for 1 h. When dissolved in NaOH, heme is light to dark brown in color; however, when it binds to a peptide, the color changes to reddish-brown as described by [Sankari et al. (2022)]. The change in color of heme to reddish-brown indicated the heme binding ability of the peptide.

[10] = Peroxidase assay (TMB substrate); format: biochemical; details: heme 5 µM, peptide 5 µM, absorption at 370 nm and 652 nm
Experimental: A Pierce TMB substrate kit (Thermo Scientific) was used to measure the peroxidase activity of heme. In a transparent 96-well plate, 50 µl of TMB substrate and 50 µl of […] were added followed by addition of heme (5 µM) or peptides plus heme (5 µM each). The reaction progression was measured in the Tecan plate reader, by recording UV-vis absorption values at 370 nm and 652 nm for every minute up to 1 h.

[11] = SFM, ~10^5 conidia ml−1, room temperature, 48 h, resazurin cell viability assay and microscopy

| Compound | MIC (µM) against Fungicide sensitive C. sojina isolate (Cs320) ([1]; QoI fungicides, determined in 2 days, 0.02 µM lowest concentration tested) [µM] | interaction with NCR13_PFV1 by FIC index [2] | interaction with NCR13_PFV1 by FIC index ([3]; Cs350, in vitro, 96 h) | FIC score ([3]; pair azoxystrobin / NCR13_PFV1, Cs350, 4 d) | Combination MIC ([3]; pair azoxystrobin / NCR13_PFV1, Cs350, 4 d, SHAM 60 µg ml–1, microscopy) [µM] | MIC ([3]; pair azoxystrobin / NCR13_PFV1, Cs350, 4 d, SHAM 60 µg ml–1, microscopy, highest fungicide concentration 48 µM, read-out: Individual MIC) [µM] | cell death [4] [%] | plasma membrane permeabilization (SYTOX Green uptake) [5] | FLS symptoms in planta [6] | MIC (μM) against C. sojina isolates, Fungicide sensitive, Cs320 [1, 11] [µM] | fold increase of MIC with increasing iron concentration ([7]; FeSO4 in SFM) [fold] | MIC (μM) against C. sojina, Fungicide resistant, Cs350 [7, 11] [µM] | fold less potent than NCR13_PFV1 ([8]; from MIC against C. sojina) [fold] | MIC against fungicide-sensitive and -resistant isolates of C. sojina ([8]; range over Cs320 and Cs350, 48 h) [µM] | heme binding (colour change of heme from brown to reddish-brown) [9] | peroxidase activity of heme and FeSO4 in the presence of peptide [10] |
| --- | --- | --- | --- | --- | --- | --- | --- | --- | --- | --- | --- | --- | --- | --- | --- | --- |
| CO/C=C(/C(=O)OC)c1ccccc1Oc1cc(Oc2ccccc2C#N)ncn1 [Azoxystrobin, azoxystrobin] | 0.09 to 0.18 | additive (additive, >0.5–1.0) | additive (additive, >0.5–1.0) | ≤ 1 | 48 | > 48 | 11 | did not permeabilize the plasma membrane | able to reduce FLS symptoms in planta | – | – | – | – | – | – | – |
| TKPCQSDKDCKKFACRKPKVPKCINGFCKCVR (disulfide (positions not given here)) [NCR13_PFV2] | – | – | – | – | – | – | – | – | – | 1.5 | 2 | 3 | 2 | 1.5 to 3 | no such color change | not reduced or stopped |
| RNGCIVDARCPYQKCSYPLYCRRR [NCR455, reference compound] | – | – | – | – | – | – | – | – | – | – | – | – | – | – | visible color change of heme from brown to reddish-brown | reduced or stopped |
